Measured values as given in patent US6362369B1, “Phthalic acid diamide derivatives fluorine-containing aniline compounds as starting material, agricultural and horticultural insecticides, and a method for application of the insecticides” (Nihon Nohyaku Co., Ltd., priority 1997, dated 2002).

Assays:
Type in all cases: in vivo
[1] = system: diamondback moth (Plutella xylostella); experiment: Insecticidal effect on diamondback moth (Test Example 1); conditions: diamondback moth; judged by the mortality criterion of Test Example 1
Method in brief: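 Eggs laid by adult moths on Chinese cabbage seedlings, which were immersed in test solution, air-dried and kept at 25 °C. Hatched insects counted 6 days after immersion and mortality calculated, with effect graded by criterion; triplicate groups of 10 insects.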

[2] = system: common cutworm (Spodoptera Litura); experiment: Insecticidal effect on common cutworm (Test Example 2); conditions: 500 ppm; cabbage leaf immersed; second-instar larvae of common cutworm; eight days after inoculation; 25° C.
Method in brief: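 2nd-instar larvae on air-dried treatment, closed dish, 25° C; dead/alive counted at day 8. Mortality calculated, graded by criterion. 3 × 10 insects.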

[3] = system: rice leafroller (Cnaphalocrocis medinalis); experiment: Insecticidal effect on rice leafroller (Test Example 3); conditions: 500 ppm; rice lamina immersed; third-instar larvae of rice leafroller; four days after inoculation; 25° C., humidity 70%
Method in brief: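 Groups of 10 third-instar larvae, in triplicate, are placed on air-dried lamina resting on wet filter paper. Incubation runs four days at 25° C with 70% humidity before survivors and dead are tallied.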

Row | Structure (SMILES) | Insecticidal effect, Test Example 1 [1] | Insecticidal effect, Test Example 2 [2] | Insecticidal effect, Test Example 3 [3]
1 | Cc1cc(OC(F)F)c(Cl)cc1NC(=O)c1cccc(Cl)c1C(=O)NC(C)C [compound 150] | A (100) | A (100) | A (100)
2 | Cc1cc(OC(F)(F)C(F)F)c(Cl)cc1NC(=O)c1cccc(Cl)c1C(=O)NC(C)C [compound 152] | A (100) | A (100) | A (100)
3 | Cc1cc(Oc2c(F)c(F)c(F)c(F)c2F)ccc1NC(=O)c1cccc(Cl)c1C(=O)NC(C)C [compound 157] | A (100) | A (100) | A (100)
4 | Cc1cc(Oc2ccc(C(F)(F)F)cn2)ccc1NC(=O)c1cccc(Cl)c1C(=O)NC(C)C [compound 158] | A (100) | A (100) | A (100)
5 | Cc1cc(Oc2ncc(C(F)(F)F)cc2Cl)ccc1NC(=O)c1cccc(Cl)c1C(=O)NC(C)C [compound 159] | A (100) | A (100) | A (100)
6 | CCOP(=O)(OCC)c1ccc(NC(=O)c2cccc(Cl)c2C(=O)NC(C)C)c(C)c1 [compound 161] | A (100) | D (79-50) | A (100)
7 | CC(C)NC(=O)c1c(Cl)cccc1C(=O)Nc1ccc(OC(F)F)cc1C(F)(F)F [compound 163] | A (100) | A (100) | A (100)
8 | CC(C)NC(=O)c1c(Cl)cccc1C(=O)Nc1ccc2oc(C(F)(F)F)nc2c1 [compound 165] | A (100) | B (99-90) | C (89-80)
9 | CC(C)NC(=O)c1c(Cl)cccc1C(=O)Nc1ccc2c(c1)nc(C(F)(F)F)n2C [compound 167] | A (100) | A (100) | A (100)
10 | Cc1ccccc1NC(=O)c1ccc(Cl)cc1C(=O)NC(C)C [compound 170] | A (100) | D (79-50) | B (99-90)
11 | CC(C)NC(=O)c1cc(Cl)ccc1C(=O)Nc1ccc(OC(F)(F)F)cc1 [compound 172] | A (100) | A (100) | D (79-50)
12 | CC(C)NC(=O)c1cc(Cl)ccc1C(=O)Nc1ccc(Cl)cc1Cl [compound 173] | A (100) | D (79-50) | D (79-50)
13 | Cc1c(Cl)cccc1NC(=O)c1ccc(Cl)cc1C(=O)NC(C)C [compound 176] | A (100) | D (79-50) | A (100)
14 | Cc1cc(Cl)ccc1NC(=O)c1ccc(Cl)cc1C(=O)NC(C)C [compound 177] | A (100) | A (100) | A (100)
15 | Cc1cc(OC(F)F)ccc1NC(=O)c1ccc(Cl)cc1C(=O)NC(C)C [compound 180] | A (100) | A (100) | A (100)
16 | CC(C)NC(=O)c1cccc(Cl)c1C(=O)Nc1ccc(C(F)(C(F)(F)F)C(F)(F)F)cc1 [compound 198] | A (100) | C (89-80) | A (100)
17 | CC(C)NC(=O)c1cccc(Cl)c1C(=O)Nc1ccc(OC(F)(F)C(F)OC(F)(F)C(F)(F)C(F)(F)F)cc1 (stereo not drawn) [compound 201] | A (100) | B (99-90) | A (100)
18 | CC(C)NC(=O)c1cccc(Cl)c1C(=O)Nc1ccc(Cl)cc1F [compound 212] | A (100) | D (79-50) | A (100)
19 | Cc1cccc(NC(=O)c2c(Cl)cccc2C(=O)NC(C)C)c1C [compound 213] | A (100) | A (100) | A (100)
20 | Cc1cc(Cl)ccc1NC(=O)c1c(Cl)cccc1C(=O)NC(C)C [compound 214] | A (100) | A (100) | A (100)
